The text below walks through data of patent US20180221306A1, “PHARMACEUTICAL COMPOSITIONS OF 5-HYDROXY-2-METHYLNAPHTHALENE-1,4-DIONE” (PellFiCure Pharmaceuticals, Inc., priority 2016, published 2018).

This test concerns PTEN-P2/H2B-GFP mouse prostate cancer cells. Briefly: IVM pseudo-orthotopic prostate chamber model, tumor size. To be noted: for Combination efficacy: the drug in combination with Compound I administered orally. Here is the method: Male Nude mice (25-35 g body weight) are anesthetized (7.3 mg ketamine hydrochloride and 2.3 mg xylazine/100 g body weight, i.p.) and placed on a heating pad. Two symmetrical titanium frames are implanted into a dorsal skinfold, so as to sandwich the extended double layer of skin. A 15 mm full thickness circular layer is excised. The underlying muscle (M. cutaneous max.) and subcutaneous tissues are covered with a glass coverslip incorporated in one of the frames. After a recovery period of 2-3 days, prostate tissue and cancer cell spheroids are carefully placed in the chamber. Small circular Band Aids are applied on the backside of the chamber after surgery to prevent scratching. Before surgery, Buprenorphine (0.1 mg/kg) is given IP. After surgery Meloxicam is given in the drinking water for 4 days Meloxicam (5.0 mg/ml), is added at 35 μl per 100 ml of water to be medicated.
Mice are anesthetized with 7.3 mg ketamine hydrochloride and 2.3 mg xylazine/100 g body weight, i.p. A lateral incision across the scrotum is made and the testes are individually ligated and excised. The wound is cauterized. The incision is then sutured and sealed with Nexaband® acrylic.
Preparation of tumor spheroids: Liquid overlay plates were generated using 1% molecular biology grade agarose melted in cell culture medium and plated in round bottom 96 well plates at 50 ul/well. Tumor cells grown as pre-confluent monolayers were trypsinized and diluted to a final volume of 1,000,000 cells/ml. Viability was determined by Trypan blue. Cells were placed onto the cooled agarose (70 μl/well) and allowed to compact into spheroids for 24 hours. The spheroids were picked with a pipette and transferred into serum-free media for implantation in the chambers.
IntraVital Microscopy (IVM) can be used to visualize tumors in animals and analyze various aspects of cancer physiology such as tumor vascularization, cell migration and metastasis. An advantage of IVM includes the real-time analysis of dynamic processes with single-cell resolution. IntraVital microscopy offers the possibility to follow tumor growth in a non-invasive, non-destructive manner. The application of IVM can be limited to animal models that bear visually accessible tumors. Therefore, the dorsal skinfold chamber model described above can be compatible with IVM. Using IVM can permit a number of parameters to be measured in living animals and as a function of time, including tumor growth, angiogenesis, infiltration by immune cells, tumor cell migration, mitosis (cell-division) and apoptosis (programmed cell death), all in the context of the host and in real time.
Unless otherwise indicated, Compound I was administered by oral gavage in a sesame oil (Carrier A) formulation. Compound I was dissolved in DMSO then in oil at a concentration of 0.25 mg/ml (weight/volume) with a final DMSO concentration of 0.5% (vol/vol), and administered to mice at 1 mg/kg. In some experiments, Compound I dissolved in a mixture of poly-ethylene glycol/DMSO 30% (w/v) was administered via intra-peritoneal injection.
The efficacy of the formulation of Compound I in Carrier A for oral administration was compared to the previous formulation of Compound I in poly-ethylene glycol (PEG) for intra-peritoneal injection (i.p.). These experiments were performed using Intra Vital Microscopy (IVM) in a pseudo-orthotopic prostate chamber model in which minced prostate tissue is grafted in chambers surgically placed in the dorsal skinfold of mice, and allowed to vascularize. Small tumor cells spheroids were then placed on the prostate tissue, creating a biologically relevant prostatic environment. The tumor cells that express fluorescent H2B-GFP and can be detected in situ and in real-time through the microscopy window of the dorsal chamber.
Epithelial cell lines derived from the prostate tumor of a PTEN-null mouse were used. Mouse prostate cancer cells PTEN-P2 are heterozygous for PTEN deletion and do express protein PTEN.

With `C[C@]12CC[C@H](O)CC1=CC[C@@H]1[C@@H]2CC[C@]2(C)C(c3cccnc3)=CC[C@@H]12` [Abiratcrone, (3β)-17-(pyridin-3-yl)androsta-5,16-dien-3-ol, reference compound], the Combination efficacy entry is on record as “Yes”.

With `CC(O)(CS(=O)(=O)c1ccc(F)cc1)C(=O)Nc1ccc(C#N)c(C(F)(F)F)c1` (stereo not drawn) [bicalutamide, N-[4-cyano-3-(trifluoromethyl)phenyl]-3-[(4-fluorophenyl)sulfonyl]-2-hydroxy-2-methylpropanamide, reference compound], the Combination efficacy result is given as “No”. The “Effect on tumor size, drug alone” value (bicalutamide alone, inhibited further tumor growth) is on record as “did not result in a reduction of initial tumor size”.

As for `C[C@]12C=CC(=O)N[C@@H]1CC[C@@H]1[C@@H]2CC[C@]2(C)[C@@H](C(=O)Nc3cc(C(F)(F)F)ccc3C(F)(F)F)CC[C@@H]12` [dutasteride, (5α,17β)-N-{2,5-bis(trifluoromethyl)phenyl}-3-oxo-4-azaandrost-1-ene-17-carboxamide, reference compound], the Combination efficacy entry is “Yes”. For the same compound, the “Tumor size relative to initial size” value (dutasteride alone) is on record as 120%.

`CNC(=O)c1ccc(N2C(=S)N(c3ccc(C#N)c(C(F)(F)F)c3)C(=O)C2(C)C)cc1F` [enzalutamide, (4-(3-(4-cyano-3-(trifluoromethyl)phenyl)-5,5-dimethyl-4-oxo-2-thioxoimidazolidin-1-yl)-2-fluoro-N-methylbenzamide), reference compound]: the Combination efficacy entry is on record as “No”. Where the note is “enzalutamide alone”, the “Effect on tumor size, drug alone” value is “did not result in a reduction in tumor size”.

Turning to `CCNC(=O)[C@@H]1CCCN1C(=O)[C@H](CCCNC(=N)N)NC(=O)[C@H](CC(C)C)NC(=O)[C@@H](CC(C)C)NC(=O)[C@H](Cc1ccc(O)cc1)NC(=O)[C@H](CO)NC(=O)[C@H](Cc1c[nH]c2ccccc12)NC(=O)[C@H](Cc1c[nH]cn1)NC(=O)[C@@H]1CCC(=O)N1` [leuprolide, 5-oxo-L-prolyl-L-histidyl-L-tryptophyl-L-seryl-L-tyrosyl-D-leucyl-L-leucyl-L-arginyl-N-ethyl-Lprolinamide acetate, reference compound], the Combination efficacy entry is given as “Yes”. Also, where the note is “leuprolide alone”, the “Effect on tumor growth, drug alone” value is “arrested tumor growth after 15 days of treatment but did not decrease tumor sizes”. Also, where the note is “leuprolide alone (Lupron depot, 0.187 mg/mouse i.m. once)”, the “Tumor size reached, relative to initial size” value stood at 180%.

On to `CNC(=O)c1ccc2cc(C3(O)CCn4cncc43)ccc2c1` (stereo not drawn) [orteronel, 6-(7-Hydroxy-6,7-dihydro-5H-pyrrolo[1,2-c]imidazol-7-yl)-N-methyl-naphthalene-2-carboxamide, reference compound], for which the Combination efficacy result is “Yes”. Further, the “Effect on tumor size, drug alone” value (orteronel alone) is reported as “did not result in a reduction in tumor size”.
